The numbers were not newly measured in paper PMC6044621 (ACS Omega, 2016), which cites them from elsewhere.

This data set concerns Cbx7. The following applies: ref 13c.

As to UNC3866, the “potency as Cbx7 inhibitor” value is on record as 97 nM.
